The values below come from PMC10726354, “Design, Synthesis, and Biological Evaluation of Small-Molecule-Based Radioligands with Improved Pharmacokinetic Properties for Imaging of Programmed Death Ligand 1” (Journal of Medicinal Chemistry, 2023).

In this assay the target is T1, PD-L1 (Homo sapiens, UniProt Q9NZQ7).
T1 construct: expressed in transfected cells; host or cells: PC3 cells (human prostate carcinoma), stably transduced
The experiment in a line: Saturation binding assay on live PC3 PD-L1 overexpressing cells. The protocol: For assessing the binding affinity of compounds [^64Cu]Cu-1–6, PC3 cells transduced with PD-L1 were used. Dissociation constants in equilibrium (KD) and maximum number of binding sites (Bmax) were determined in a saturation binding assay. The assays were performed with the addition of 2.5% bovine serum albumin (BSA) in the medium to prevent unspecific binding to plastic wells, as reported previously for our first radioligands.[1]
For saturation binding, cells were trypsinized (0.05% Trypsin–EDTA, Gibco, USA), counted, and diluted to ∼160,000 cells/mL. 0.25 mL of the cell solution was then added to each well of a 48-well plate (Falcon Multiwell #353078) and grown for at least 2 days.
To determine the affinity (KD) and the number of binding sites (Bmax) of the herein described PD-L1 small-molecule ligands, saturation binding was performed in at least three independent experiments, as described before.[45] Cells were brought to room temperature followed by cooling on ice (each 15 min). The medium was removed and replaced with 200 μL assay buffer [PBS + 2.5% (w/v) BSA] for total binding (TB) conditions or assay buffer containing 300 μM BMS-1166 (in DMSO, resulting in 0.03% v/v) for the assessment NSB. After 15 min preincubation, 200 μL of each of the eight serial 1:1 dilutions (500 to 3.91 nM) of the respective radioligand was added (in triplicate). Cells were then incubated for 90 min at 4 °C, washed (3 × 1 min), and lysed in 500 μL of 0.1 M NaOH + 1% SDS. Radioactivity of the lysate was measured and decay corrected to a reference time (end of radiolabeling). An additional plate was subjected to the same conditions (preincubation, incubation, and washing) using PBS without BSA for each experiment, and the protein content of these lysates was determined by BCA assay. From CPM measurements, final values (pmol/mg protein) were calculated using the mean protein content and molar activity.
Processed data were then subjected to nonlinear iterative curve fitting (GraphPad Prism 9) to yield Bmax (in pmol/mg protein) and KD (in nM).

T1 sequence (Q9NZQ7 19-290): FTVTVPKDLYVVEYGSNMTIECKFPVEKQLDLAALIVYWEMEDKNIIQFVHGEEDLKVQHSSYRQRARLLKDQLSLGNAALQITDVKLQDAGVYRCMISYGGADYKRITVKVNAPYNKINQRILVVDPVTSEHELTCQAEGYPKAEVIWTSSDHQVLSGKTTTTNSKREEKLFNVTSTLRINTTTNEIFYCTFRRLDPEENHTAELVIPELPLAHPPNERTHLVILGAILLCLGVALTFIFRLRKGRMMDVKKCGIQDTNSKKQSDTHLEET

With `Cc1c(COc2cc(OCc3cccc(C#N)c3)c(CN3C[C@H](O)C[C@@H]3C(=O)O)cc2Cl)cccc1-c1ccc2c(c1)OCCO2` [BMS-1166, reference compound], the “binding blocked in the saturation assay” value was around 80%.
